Measurements reported in ChEMBL document CHEMBL5244275, “Geminal Diheteroatomic Motifs: Some Applications of Acetals, Ketals, and Their Sulfur and Nitrogen Homologues in Medicinal Chemistry and Drug Design” (J Med Chem, 2021).

Tested on: not listed separately
Test: Stability of the compound in 1M HCL buffer assessed as drug degradation by measuring rate constant by FRET-based assay
Type: physicochemical
Conditions: not given
For `COc1cc(/N=N/c2ccc([N+](=O)[O-])cc2)c(OC)cc1/N=N/c1ccc(N(C)CCCC(=O)NCCSC2CC(=O)N(CCC3OCC(C(=O)NCCCNC(=O)c4ccc(-c5c6ccc(=[N+](C)C)cc-6oc6cc(N(C)C)ccc56)c(C(=O)[O-])c4)O3)C2=O)cc1` (stereo not drawn), the K was 4.61 10^-6/s. In the case of `COc1cc(/N=N/c2ccc([N+](=O)[O-])cc2)c(OC)cc1/N=N/c1ccc(N(C)CCCC(=O)NCCSC2CC(=O)N(CC3OCC(C(=O)NCCCNC(=O)c4ccc(C(=O)[O-])c(-c5c6ccc(=[N+](C)C)cc-6oc6cc(N(C)C)ccc56)c4)CO3)C2=O)cc1` (stereo not drawn), the K is reported as 3.8 10^-7/s. In the case of `COc1cc(/N=N/c2ccc([N+](=O)[O-])cc2)c(OC)cc1/N=N/c1ccc(N(C)CCCC(=O)NCCSC2CC(=O)N(CC3OCC(C(=O)NCCCNC(=O)c4ccc(C(=O)[O-])c(-c5c6ccc(=[N+](C)C)cc-6oc6cc(N(C)C)ccc56)c4)O3)C2=O)cc1` (stereo not drawn), the K is reported as 1.59 10^-6/s. With `COc1cc(/N=N/c2ccc([N+](=O)[O-])cc2)c(OC)cc1/N=N/c1ccc(N(C)CCCC(=O)NCCSC2CC(=O)N(CC3CCC(C(=O)NCCCNC(=O)c4ccc(C(=O)[O-])c(-c5c6ccc(=[N+](C)C)cc-6oc6cc(N(C)C)ccc56)c4)CC3)C2=O)cc1` (stereo not drawn) the K was 3.06 10^-7/s. With `COc1cc(/N=N/c2ccc([N+](=O)[O-])cc2)c(OC)cc1/N=N/c1ccc(N(C)CCCC(=O)NCCSC2CC(=O)N(CCC3OCC(C(=O)NCCCNC(=O)c4ccc(-c5c6ccc(=[N+](C)C)cc-6oc6cc(N(C)C)ccc56)c(C(=O)[O-])c4)CO3)C2=O)cc1` (stereo not drawn) the K was 2.28 10^-6/s.

Biological target: Substance-P receptor (Homo sapiens, UniProt P25103)
Sequence (P25103 whole entry): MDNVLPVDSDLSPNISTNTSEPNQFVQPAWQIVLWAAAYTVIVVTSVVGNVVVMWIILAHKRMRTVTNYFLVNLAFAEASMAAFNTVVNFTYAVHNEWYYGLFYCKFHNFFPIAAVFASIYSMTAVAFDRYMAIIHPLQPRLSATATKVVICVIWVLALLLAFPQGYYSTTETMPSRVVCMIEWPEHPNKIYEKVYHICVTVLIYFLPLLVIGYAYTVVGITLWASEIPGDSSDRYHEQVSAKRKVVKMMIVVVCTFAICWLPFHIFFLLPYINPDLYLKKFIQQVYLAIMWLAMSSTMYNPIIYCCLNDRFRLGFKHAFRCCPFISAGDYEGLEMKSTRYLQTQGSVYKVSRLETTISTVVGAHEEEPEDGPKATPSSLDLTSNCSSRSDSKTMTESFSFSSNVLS
Test: Displacement of [125I]-labeled SP from human NK-1 receptor expressed in CHO cells
Type: cell-based
Conditions: not given
`CN(C)Cc1[nH]nnc1CN1CCO[C@@]2(CC[C@@H](c3ccccc3C(F)(F)F)CO2)[C@@H]1c1ccc(F)cc1` showed an IC50 of 0.0011 µM. For `CN(C)Cc1[nH]nnc1CN1CCO[C@@]2(CC[C@@H](c3ccccc3OC(F)(F)F)CO2)[C@@H]1c1ccc(F)cc1`, the IC50 was 0.0014 µM. With `Fc1ccc([C@@H]2NCCO[C@]23CC[C@H](c2ccccc2C(F)(F)F)CO3)cc1` the IC50 was 0.4 µM. `Fc1ccc([C@@H]2NCCO[C@@]23C[C@@H](c2ccccc2C(F)(F)F)CO3)cc1` gave an IC50 of 0.024 µM. Work on `COc1cccc(-n2nnnc2C(F)(F)F)c1[C@H]1CO[C@@]2(C1)OCCN[C@H]2c1ccc(F)cc1` yielded an IC50 of 0.0001 µM. Compound `Fc1ccc([C@@H]2NCCO[C@@]23CC[C@@H](c2ccccc2C(F)(F)F)CO3)cc1` has an IC50 of 0.028 µM.

Tested on: not listed separately
Test: Stability of the compound at pH 2 assessed as half-life
Type: physicochemical
Conditions: buffer
Compound `CC1(C)OC[C@@H](C/C=C\CCCC(=O)O)[C@@H](c2ccccc2O)O1` has a half-life of 56 s. With `O=C(O)CCC/C=C\C[C@@H]1CO[C@H](C(F)(F)F)O[C@@H]1c1ccccc1O` the t1/2 was 7 yr. In the case of `Nc1nc2c(ncn2[C@H]2C=C[C@@H](CO)O2)c(=O)[nH]1`, the half-life is reported as under 120 s.

Tested on: not listed separately
Test: Oral bioavailability in dog
Type: ADME, organism-based, Canis lupus familiaris
Conditions: in vivo
With `C[C@@H](c1c[nH]c2ccccc12)[C@H](C(=O)NC[C@H]1OC[C@H](N)CO1)N1CCN(CCC(c2ccccc2)c2ccccc2)C1=O` the bioavailability was 64%. In the case of `C[C@@H](c1c[nH]c2ccccc12)[C@H](C(=O)NC[C@H]1OC[C@H](N)CO1)N1CCN(CCCc2ccccc2)C1=O`, the bioavailability is reported as 19%. `FC1CCN(CCc2ccc(C3CCC4(CC3)OOC3(OO4)C4CC5CC(C4)CC3C5)cc2)CC1` (stereo not drawn) showed a bioavailability of 40%.

Tested on: not listed separately
Test: Oral bioavailability in mouse
Type: ADME, organism-based
Conditions: in vivo
Work on `C=C(C)CN1C[C@H](OC[C@@]23C[C@@H]4[C@H](C)CC[C@H]4[C@@]4(C=O)C[C@@H]2C=C(C(C)C)[C@@]34C(=O)O)O[C@H](C)[C@@H](OC)C1` yielded a bioavailability of 63%. In the case of `FC1CCN(CCc2ccc(C3CCC4(CC3)OOC3(OO4)C4CC5CC(C4)CC3C5)cc2)CC1` (stereo not drawn), the bioavailability is reported as 82%.

Tested on: not listed separately
Test: Stability of the compound in HCL solution assessed as compound hydrolysis by measuring relative rate constant by NMR analysis
Type: physicochemical
Conditions: buffer
In the case of `C1COCOC1`, the K is reported as 1. For `c1ccc2c(c1)OC1(CCCCC1)O2`, the K was 1. In the case of `CCOC1(OCC)CCCCC1`, the K is reported as 1.3 10^10No_unit. In the case of `COC1(OC)OCCCO1`, the K is reported as 2.6 10^8No_unit. With `c1ccc2c(c1)CCOC1(CCCCC1)O2` the K was 1.3 10^8No_unit. With `COC1OCCCO1` the K was 9.3 10^4No_unit. For `COC1(C)OCCCO1`, the K was 2.4 10^9No_unit. For `CCOC1(OCC)OCCCO1`, the K was 2.3 10^9No_unit. In the case of `C1CCC2(CC1)OCCCCO2`, the K is reported as 1 10^8No_unit. With `C1CCC2(CC1)OCCO2` the K was 5.4 10^5No_unit. In the case of `c1ccc2c(c1)COC1(CCCCC1)OC2`, the K is reported as 3.3 10^6No_unit. In the case of `C1CCC2(CC1)OCCCO2`, the K is reported as 2.1 10^7No_unit. For `c1ccc2c(c1)COC1(CCCCC1)O2`, the K was 2.1 10^4No_unit. In the case of `CCC1OCCCO1`, the K is reported as 1 10^2No_unit. For `CCC1(C)OCCCO1`, the K was 3.7 10^6No_unit.

Tested on: not listed separately
Test: Half-life in human plasma
Type: ADME
Conditions: not given
In the case of `N=C(N)NCC1COC2(CCCCC2)O1` (stereo not drawn), the half-life is reported as 12 h. Work on `Cn1c(=O)c2c(ncn2CC2OCCO2)n(C)c1=O` [DOXOFYLLINE] yielded a half-life of 7 h.

Tested on: not listed separately
Test: Oral bioavailability in human
Type: ADME, organism-based
Conditions: in vivo
For `Cn1c(=O)c2c(ncn2CC2OCCO2)n(C)c1=O` [DOXOFYLLINE], the bioavailability was 63%.

Tested on: not listed separately
Test: Oral bioavailability in rat
Type: ADME, organism-based
Conditions: in vivo
In the case of `FC1CCN(CCc2ccc(C3CCC4(CC3)OOC3(OO4)C4CC5CC(C4)CC3C5)cc2)CC1` (stereo not drawn), the bioavailability is reported as 62%.
